Measured values: patent US20260116921A1, “PEPTIDE INHIBITORS OF INTERLEUKIN-23 RECEPTOR AND THEIR USE TO TREAT INFLAMMATORY DISEASES” (priority 2018, published 2026)
Like-named read-outs stand apart in the source and are kept apart here. Bridge positions count the residues as written; N and C are the ends. Square brackets hold non-standard residues; d marks the D form. Peptide text beside a SMILES is read from it. Trp(7-Me) = Cc1cccc2c(C[C@H](N)C(=O)O)c[nH]c12; 2Nal = N[C@@H](Cc1ccc2ccccc2c1)C(=O)O; AEF = NCCOc1ccc(C[C@H](N)C(=O)O)cc1; Cit = NC(=O)NCCC[C@H](N)C(=O)O; Pen = CC(C)(S)[C@H](N)C(=O)O; αMeK = C[C@](N)(CCCCN)C(=O)O

Assays:
IL-23R = target: T1, IL-23R (Homo sapiens, UniProt Q5VWK5); experiment: DB cells IL23R pSTAT3 cell assay (pStat3 HTRF); format: cell-based
T1 sequence (Q5VWK5 24-629): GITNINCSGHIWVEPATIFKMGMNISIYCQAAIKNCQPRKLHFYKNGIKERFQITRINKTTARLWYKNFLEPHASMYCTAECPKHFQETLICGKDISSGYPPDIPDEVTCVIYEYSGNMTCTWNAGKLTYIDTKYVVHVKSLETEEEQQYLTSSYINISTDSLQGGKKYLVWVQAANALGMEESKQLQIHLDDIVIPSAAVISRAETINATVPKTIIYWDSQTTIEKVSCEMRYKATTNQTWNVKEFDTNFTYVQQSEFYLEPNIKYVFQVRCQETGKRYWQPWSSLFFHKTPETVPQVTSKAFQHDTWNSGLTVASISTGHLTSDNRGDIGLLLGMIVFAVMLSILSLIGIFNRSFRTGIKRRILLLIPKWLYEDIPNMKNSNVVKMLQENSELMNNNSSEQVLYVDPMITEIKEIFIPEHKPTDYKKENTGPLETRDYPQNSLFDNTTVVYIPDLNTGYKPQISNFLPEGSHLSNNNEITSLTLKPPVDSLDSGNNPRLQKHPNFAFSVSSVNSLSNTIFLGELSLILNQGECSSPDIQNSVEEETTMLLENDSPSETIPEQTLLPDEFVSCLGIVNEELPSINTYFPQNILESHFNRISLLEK
In short: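 DB cells (5×10E5/well, RPMI-1640 + 10% FBS) stimulated with 0.5 nM final IL-23 plus serially diluted test peptides for 30 min at 37 °C, 5% CO2. Phospho-STAT3 (Tyr705) in lysates measured by HTRF using a two-plate protocol.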

in vitro [1] = settings: human, pH 6.8; for half-life at 20 μM: 20% fecal homogenate (supernatant), anaerobic
Procedure: Fecal homogenate (20%) was prepared by adding 4 mL of growth medium (1 liter contains 2 g peptone water powder, 2 g yeast extract, 0.1 g NaCl, 0.04 g KH2PO4, 0.01 g CaCl2·6H2O, 0.01 g MgSO4·7H2O, 2 mL Tween 80, 0.5 g bile salts, 0.5 g L-cysteine HCl, 2 g NaHCO3, and 10 μL Vitamin K, pH adjusted to 6.8, and sterilized by filtration through a 0.22 μm filter) to every gram of feces (pooled freshly collected human or cynomolgus monkey feces). The suspension was vortexed to break up large clumps, and homogenized using a bead mill homogenizer. Centrifuged the homogenate at 2800×g for 15 min. The supernatant is taken out and used for incubations. DMSO stocks (10 mM) were first prepared for the test compounds. Incubations were performed in an anaerobic chamber conditioned at 37° C. Aliquots of the DMSO solutions were dosed into 1.0 mL aliquots of 20% fecal homogenate, which are pre-warmed to 37° C. The final test compound concentration was 20 μM. At each timepoint (0, 20 min, 1, 3, 6, or 24 hours), 100 μL aliquot of each incubation mixture is taken out and added to separate tubes containing 300 μL of 50% acetonitrile/50% methanol and an internal standard to terminate the reaction. Samples were taken out of the anaerobic chamber and stored at 4° C. until the end of the experiment. After the final timepoint is sampled, the tubes were mixed and then centrifuged at 3,000 rpm for 10 minutes. Aliquots of the supernatant were removed, diluted 1:1 into distilled water containing 0.1% formic acid, and analyzed by LC/MS/MS. Percent remaining at each timepoint was calculated based on the peak area response ratio of test to compound to internal standard. Time 0 was set to 100%, and all later timepoints were calculated relative to time 0. Half-lives were calculated by fitting to a first-order exponential decay equation using Graphpad or Excel.

in vitro [2] = settings: cynomolgus monkey, pH 6.8; for half-life at 20 μM: 20% fecal homogenate (supernatant), anaerobic
in vitro [3] = settings: both, SD, rat; for half-life at 20 μM: plasma (EDTA)
[4] = Table E3, DB cells, IL-23 0.5 nM, 30 minutes at 37° C., read-out: pStat3 HTRF (IC50)

Row | SMILES | IC50 (IL-23R; [4]) [nM] | half-life at 20 μM (in vitro [1]) [h] | half-life at 20 μM (in vitro [2]) [h] | half-life at 20 μM (in vitro [3]) [h] | half-life (in vitro [1]; tissue homogenate) [h] | half-life (in vitro [2]; tissue homogenate) [h] | half-life (in vitro [3]; plasma) [h] | IC50 (IL-23R) [nM]
1 | CC(=O)NCCCC[C@H](NC(=O)[C@](C)(CC(C)C)NC(=O)[C@H](Cc1ccc2ccccc2c1)NC(=O)[C@H](Cc1ccc(OCCN)cc1)NC(=O)[C@H]1NC(=O)[C@H](CCC(N)=O)NC(=O)[C@H](Cc2c[nH]c3c(C)cccc23)NC(=O)[C@H]([C@@H](C)O)NC(=O)[C@H](CC(N)=O)NC(=O)[C@@H](NC(C)=O)C(C)(C)SSC1(C)C)C(=O)N[C@H](Cc1ccccc1)C(=O)NCCC(N)=O [compound 213] | 10 to 100 | > 24 | > 24 | < 0.3 | – | – | – | –
2 | CC(=O)NCCCC[C@H](NC(=O)[C@](C)(CC(C)C)NC(=O)[C@H](Cc1ccc2ccccc2c1)NC(=O)[C@H](Cc1ccc(OCCN)cc1)NC(=O)[C@H]1NC(=O)[C@H](CCC(N)=O)NC(=O)[C@H](Cc2c[nH]c3c(C)cccc23)NC(=O)[C@H]([C@@H](C)O)NC(=O)[C@H](CC(N)=O)NC(=O)[C@@H](NC(C)=O)C(C)(C)SSC1(C)C)C(=O)N[C@H](Cc1c[nH]cn1)C(=O)NCCC(N)=O [compound 215] | 1 to 10 | – | – | – | > 24 | > 24 | 2 | –
3 | CC(=O)NCCCC[C@H](NC(=O)[C@](C)(CCCCN)NC(=O)[C@H](Cc1ccc2ccccc2c1)NC(=O)[C@H](Cc1ccc(OCCN)cc1)NC(=O)[C@H]1NC(=O)[C@H](CCCNC(N)=O)NC(=O)[C@H](Cc2c[nH]c3c(C)cccc23)NC(=O)[C@H]([C@@H](C)O)NC(=O)[C@H](CC(N)=O)NC(=O)[C@@H](NC(C)=O)C(C)(C)SSC1(C)C)C(=O)N[C@@H](CC(N)=O)C(=O)N[C@H](C(N)=O)[C@@H](C)O [compound 262] (Ac-[Pen]NT[Trp(7-Me)][Cit][Pen][AEF][2Nal][αMeK]K(Ac)NT-NH2; disulfide 1-6) | 1 to 10 | 15 | 3 | > 24 | – | – | – | –
4 | CC(=O)NCCCC[C@H](NC(=O)[C@](C)(CCCCN)NC(=O)[C@H](Cc1ccc2ccccc2c1)NC(=O)[C@H](Cc1ccc(OCCN)cc1)NC(=O)[C@H]1NC(=O)[C@H](CCC(N)=O)NC(=O)[C@H](Cc2c[nH]c3c(C)cccc23)NC(=O)[C@H]([C@@H](C)O)NC(=O)[C@H](CC(N)=O)NC(=O)[C@@H](NC(C)=O)C(C)(C)SSC1(C)C)C(=O)N[C@@H](CC(C)C)C(=O)NCCC(N)=O [compound 269] | 1 to 10 | > 24 | > 24 | > 24 | – | – | – | –
5 | CC(=O)NCCCC[C@@H]1NC(=O)[C@H](Cc2c[nH]c3c(C)cccc23)NC(=O)[C@H]([C@@H](C)O)NC(=O)[C@H](CC(N)=O)NC(=O)[C@@H](NC(C)=O)C(C)(C)SSC(C)(C)[C@@H](C(=O)N[C@@H](Cc2ccc(OCCN)cc2)C(=O)N[C@@H](Cc2ccc3ccccc3c2)C(=O)N[C@@](C)(CCCCN)C(=O)N[C@@H](CCCCNC(C)=O)C(=O)N[C@@H](CC(N)=O)C(=O)N(C)[C@@H](CCCNC(=N)N)C(N)=O)NC1=O [compound 246] | 1 to 10 | > 24 | > 24 | > 24 | – | – | – | –
6 | CC(=O)N[C@@H]1C(=O)N[C@@H](CC(N)=O)C(=O)N[C@@H]([C@@H](C)O)C(=O)N[C@@H](Cc2c[nH]c3c(C)cccc23)C(=O)N[C@@H](CCC(N)=O)C(=O)N[C@H](C(=O)N[C@@H](Cc2ccc(OCCN)cc2)C(=O)N[C@@H](Cc2ccc3ccccc3c2)C(=O)N[C@@](C)(CC(C)C)C(=O)NCC(=O)N2CCC[C@H]2C(=O)NCCC(N)=O)C(C)(C)SSC1(C)C [compound 219] | 10 to 100 | 16 | 24 | 3 | – | – | – | –
7 | CC(=O)NCCCC[C@H](NC(=O)[C@](C)(CC(C)C)NC(=O)[C@H](Cc1ccc2ccccc2c1)NC(=O)[C@H](Cc1ccc(OCCN)cc1)NC(=O)[C@H]1NC(=O)[C@H](CCC(N)=O)NC(=O)[C@H](Cc2c[nH]c3c(C)cccc23)NC(=O)[C@H]([C@@H](C)O)NC(=O)[C@H](CC(N)=O)NC(=O)[C@@H](NC(C)=O)C(C)(C)SSC1(C)C)C(=O)N[C@H](C)C(=O)NCCC(N)=O [compound 209] | 1 to 10 | > 24 | > 24 | 1 | – | – | – | –
8 | CC(=O)NCCCC[C@@H]1NC(=O)[C@H](Cc2c[nH]c3c(C)cccc23)NC(=O)[C@H]([C@@H](C)O)NC(=O)[C@H](CC(N)=O)NC(=O)[C@@H](NC(C)=O)C(C)(C)SSC(C)(C)[C@@H](C(=O)N[C@@H](Cc2ccc(OCCN)cc2)C(=O)N[C@@H](Cc2ccc3ccccc3c2)C(=O)N[C@@](C)(CCCCN)C(=O)N[C@@H](CCCCNC(C)=O)C(=O)N[C@@H](CC(N)=O)C(=O)N[C@H](CC(C)C)C(N)=O)NC1=O [compound 245] | < 1 | > 24 | > 24 | > 24 | – | – | – | –
9 | CC(=O)NCCCC[C@@H]1NC(=O)[C@H](Cc2c[nH]c3c(C)cccc23)NC(=O)[C@H]([C@@H](C)O)NC(=O)[C@H](CC(N)=O)NC(=O)[C@@H](NC(C)=O)C(C)(C)SSC(C)(C)[C@@H](C(=O)N[C@@H](Cc2ccc(OCCN)cc2)C(=O)N[C@@H](Cc2ccc3ccccc3c2)C(=O)N[C@@](C)(CCCCN)C(=O)N[C@@H](CCCCNC(C)=O)C(=O)N[C@@H](CC(N)=O)C(=O)N[C@H](CC(N)=O)Cc2ccccc2)NC1=O [compound 247] | – | > 24 | > 24 | > 24 | – | – | – | 1 to 10
10 | CC(=O)NCCCC[C@H](NC(=O)[C@](C)(CCCCN)NC(=O)[C@H](Cc1ccc2ccccc2c1)NC(=O)[C@H](Cc1ccc(OCCN)cc1)NC(=O)[C@H]1NC(=O)[C@H](CCC(N)=O)NC(=O)[C@H](Cc2c[nH]c3cc(Cl)ccc23)NC(=O)[C@H]([C@@H](C)O)NC(=O)[C@H](CC(N)=O)NC(=O)[C@@H](NC(C)=O)C(C)(C)SSC1(C)C)C(=O)N[C@@H](CC(N)=O)C(=O)NCCC(N)=O [compound 228] | 10 to 100 | > 24 | 13 | > 24 | – | – | – | –
11 | CC(=O)NCCCC[C@H](NC(=O)[C@](C)(CCCCN)NC(=O)[C@H](Cc1ccc2ccccc2c1)NC(=O)[C@H](Cc1ccc(OCCN)cc1)NC(=O)[C@H]1NC(=O)[C@H](CCC(N)=O)NC(=O)[C@H](Cc2c[nH]c3c(C)cccc23)NC(=O)[C@H]([C@@H](C)O)NC(=O)[C@H](CCC(N)=O)NC(=O)[C@@H](NC(C)=O)C(C)(C)SSC1(C)C)C(=O)N[C@@H](CC(N)=O)C(=O)NCCC(N)=O [compound 237] | 1 to 10 | > 24 | 6 | > 24 | – | – | – | –
12 | CC(=O)NCCCC[C@@H]1NC(=O)[C@H](Cc2c[nH]c3c(C)cccc23)NC(=O)[C@H]([C@@H](C)O)NC(=O)[C@H](CC(N)=O)NC(=O)[C@@H](NC(C)=O)C(C)(C)SSC(C)(C)[C@@H](C(=O)N[C@@H](Cc2ccc(OCCN)cc2)C(=O)N[C@@H](Cc2ccc3ccccc3c2)C(=O)N[C@@](C)(CCCCN)C(=O)N[C@@H](CCCCNC(C)=O)C(=O)NCCC(=O)NCCC(N)=O)NC1=O [compound 270] | 1 to 10 | > 24 | > 24 | > 24 | – | – | – | –
